Source: PMC4581321, “Inhibitory Effects of Amorphigenin on the Mitochondrial Complex I of Culex pipiens pallens Coquillett (Diptera: Culicidae)” (International Journal of Molecular Sciences, 2015)
≈ marks a conversion by molar mass, not a printed value. Where two headings read alike, the source gives them in different places.

How the values were obtained:
[1] = system: bovine heart mitochondrial complex I; conditions: cited from earlier work
[2] = system: fourth instar larvae of A. aegypti; design: method as in doi:10.1016/S0031-9422(00)83185-4; conditions: 10 ppm; cited from earlier work
[3] = system: mitochondrial complex I prepared from a pig's heart; design: method as in doi:10.1016/S0926-6593(65)80060-1; conditions: cited from earlier work
[4] = system: mitochondrial complex I from submitochondrial particles of blow fly flight-muscle; design: method as in doi:10.1016/S0960-894X(00)80645-9; conditions: cited from earlier work
[5] = system: 3th instar larvae of Bombyx mori; conditions: cited from earlier work; for LC50: 3th instar larvae
[6] = system: mitochondrial complex I of Cx. pipiens pallens; experiment: In vivo inhibition of mitochondrial complex I activity (fourth-instar larvae exposed 24 h, then mitochondria isolated); design: species or system Culex pipiens pallens; conditions: for decrease of mitochondrial complex I activity compared with control: 24 h
[7] = design: method as in earlier work; conditions: summer sunlight; cited from earlier work
[8] = system: NADH-ubiquinone reductase of bovine heart submitochondrial particles; design: method as in PMID 7925463; conditions: against exogenous quinine DB and DPB; cited from earlier work
[9] = system: mitochondrial complex I of Cx. pipiens pallens; experiment: Inhibition type and constants of mitochondrial complex I (enzyme-concentration plots, Lineweaver-Burk plots); type: biochemical, Culex pipiens pallens; conditions: for inhibition type: Lineweaver-Burk plots, NADH and endogenous ubiquinone as substrates; for reversibility of inhibition: enzyme activity vs enzyme concentration plots
Text: The inhibition effect on the mitochondrial complex I by amorphigenin and rotenone was also studied. […] The plots yielded straight lines passing through the origin.
The inhibitory kinetics of the mitochondrial complex I by amorphigenin and rotenone were studied by Lineweaver–Burk plots. […] Under the experimental conditions employed, the oxidative reaction of NADH by the mitochondrial complex I followed Michaelis–Menten kinetics. The double-reciprocal plots yielded a family of straight lines with different slopes and intercepts but they intersected one another in the second quadrant. […] Equilibrium constants for inhibitor binding with the free enzyme (KI) and with the enzyme-substrate complex (KIS) can be calculated according to the Foumulations (1) and (2) based on the slope and the vertical intercept against the concentration of inhibitors in Figure 3, respectively. (1) Slope=Ks/Vm(1+[I]/KI) (2) Intercept=1/Vm(1+[I]/KIS)
Different concentrations of NADH were incubated with the mitochondria and assay buffer to examine the enzyme kinetics of NADH with and without the addition of various concentrations of rotenoids. The inhibition type of the compounds on the enzyme was assayed by Lineweaver-Burk plots. The inhibition constant was determined by plots of the apparent 1/Vm or Km/Vm versus concentration of the inhibitor [40, 58].

[10] = system: mitochondrial complex I of Cx. pipiens pallens; experiment: In vitro inhibition of mitochondrial complex I activity (NADH oxidation at 340 nm, isolated larval mitochondria); type: biochemical, Culex pipiens pallens; conditions: NADH substrate; for IC50: isolated mitochondria, read-out: IC50 (μmol/L), in vitro
Protocol: The mitochondria of the fourth instar larvae of Cx. pipiens pallens were isolated according to the method of Akbar et al. with suitable modifications. The larvae were washed in a cold extraction medium (0.25 M sucrose solution containing 0.25% defatted BSA), then homogenized in a Potter–Elvehjem homogenizer under cold conditions. The homogenate was filtered through a moist muslin cloth and the filtrate centrifuged at 1000× g for 15 min at 4 °C. The residue was re-suspended in the extraction medium and centrifuged at 1000× g for 15 min at 4 °C. The supernatants from both centrifugations were combined and centrifuged at 12,000× g for 15 min at 4 °C. The mitochondrial pellet was re-suspended in the extraction medium, and stored at −80 °C until used. The protein concentration was determined by Smith’s method using BSA as the standard.
The mitochondrial complex I activity of Cx. pipiens pallens was determined as described by Birch-Machin et al. with adaptations for a 96-well format. It is well known that the mitochondrial complex I has two substrates, NADH and ubiquinone. […] The activity was measured by following the decrease in absorbance due to the oxidation of NADH at 340 nm with 425 nm as the reference wavelength. In brief, 20 μL of mitochondria and 160 μL of assay buffer containing 25 mM phosphate buffer (pH 7.2), 5 mM MgCl2, 2 mM NaN3 and 2.5 mg/mL BSA were added to each well of the 96-well plate, then the microplate was incubated for 20 min at 37 °C in a microplate reader (Spectramax 190 plate reader; Molecular Devices, Sunnyvale, CA, USA). Finally, the reaction was initiated by the addition of 10 μL of 0.13 mM NADH and measured for 5 min.
For the assay of in vitro inhibition of the mitochondrial complex I activities, 10 μL of different concentrations each of amorphigenin and rotenone were prepared in alcohol and diluted in 25 mM phosphate buffer (pH 7.2), then mixed with 10 μL of the mitochondria. The enzyme activity was immediately determined by the method as described above. For negative controls, 10 μL of 25 mM phosphate buffer (pH 7.2) instead of amorphigenin or rotenone were used in the assays. The inhibitory extent of the compounds was expressed as the inhibitor concentrations leading to 50% of the enzyme activity reduction (IC50).
Applying Microsoft Excel 2003 software (Microsoft, Redmond, WA, USA), the average enzyme activitie results, adjusted by Abbott, were subjected to probit analysis to calculate IC50 and correlation coefficient.

[11] = system: acetylcholinesterase enzyme; design: method as in doi:10.1016/j.pestbp.2011.12.002; conditions: cited from earlier work
[12] = system: larvae of Culex pipiens pallens; design: method as in PMID 25690287; conditions: cited from earlier work
[13] = system: mammalian NADH-ubiquinone reductase; design: method as in PMID 7925463; conditions: relative to rotenone; cited from earlier work

## arylazidoamorphigenin
[1]
  inhibitory potency compared with rotenone: comparable with those of rotenone

## amorphigenin 8′-β-glucoside
[2]
  loss of the fourth instar larvae: 85%
  pupae formation: without the formation of pupae

## C=C(C)C1Cc2c(ccc3c2OC2COc4cc(OC)c(OC)cc4C2C3O)O1 (stereo not shown) [rotenone reduced with NaBH4]
[3]
  in vitro IC50: 2.0 × 10^−5 μmol/mg protein

## C=C(C)[C@H]1Cc2c(ccc3c2O[C@@H]2COc4cc(OC)c(OC)cc4[C@@H]2C3=O)O1 [Rotenone, reference compound]
[4]
  inhibition type: reversible competitive inhibitor
[5]
  LC50: 9.33 µg/mL (≈ 23.7 µM)
[6]; 1.25 μmol/L, NADH substrate
  decrease of mitochondrial complex I activity compared with control: 1.45 fold
[6]; 2.5 μmol/L, NADH substrate
  decrease of mitochondrial complex I activity compared with control: 1.77 fold
[6]; 5 μmol/L, NADH substrate
  decrease of mitochondrial complex I activity compared with control: 2.41 fold
[6]; read-out: IC50 (μmol/L), in vivo, fourth-instar larvae exposed 24 h, NADH substrate
  IC50: 2.52 µmol/L
[7]
  time until all toxicity is lost: 2 to 3 days
[3]
  in vitro IC50: 1.8 × 10^−5 μmol/mg protein
[8]
  inhibition type: noncompetitive
[9]
  inhibition type: mixed-I type
  reversibility of inhibition: reversible
[10]; 3 μmol/L
  decrease of mitochondrial complex I activity compared with control: significantly decreased
[10]; 4 μmol/L
  decrease of mitochondrial complex I activity compared with control: significantly decreased
[10]
  IC50: 3.14 µmol/L

## C=C(C)[C@@H]1CCC2=CC(=O)C[C@@H](C)[C@]2(C)C1 [Nootkatone, nootkatone]
[11]; any of the four arthropod models tested
  inhibition of acetylcholinesterase enzyme: did not inhibit

## Cc1ccc(C(C)C)cc1O [Carvacrol, carvacrol]
[11]; house flies, ticks and cockroaches
  inhibition of acetylcholinesterase enzyme: slight inhibition
[11]; mosquito
  inhibition of acetylcholinesterase enzyme: did not inhibit

## C=C(CO)[C@H]1Cc2c(ccc3c2O[C@@H]2COc4cc(OC)c(OC)cc4[C@@H]2C3=O)O1 [Amorphigenin]
[6]; 1.25 μmol/L, NADH substrate
  decrease of mitochondrial complex I activity compared with control: 1.52 fold
[6]; 2.5 μmol/L, NADH substrate
  decrease of mitochondrial complex I activity compared with control: 1.78 fold
[6]; 5 μmol/L, NADH substrate
  decrease of mitochondrial complex I activity compared with control: 2.43 fold
[6]; fourth-instar larvae exposed 24 h, NADH substrate, read-out: IC50 (μmol/L), in vivo
  IC50: 2.43 µmol/L
[12]
  LC50, larvicidal activity: 4.29 µg/mL (≈ 10.5 µM)
  LC90, larvicidal activity: 11.27 µg/mL (≈ 27.5 µM)
[9]
  inhibition type: mixed-I type
  reversibility of inhibition: reversible
[10]; 2 μmol/L
  decrease of mitochondrial complex I activity compared with control: 27.38%
[10]; 3 μmol/L
  decrease of mitochondrial complex I activity compared with control: 50.00%
[10]; 4 μmol/L
  decrease of mitochondrial complex I activity compared with control: 70.24%
[10]
  IC50: 2.86 µmol/L
[1]
  inhibitory potency compared with rotenone: comparable with rotenone

## C=C(C)[C@@H]1Cc2c(ccc3c2O[C@@H]2COc4cc(OC)c(OC)cc4[C@@H]2C3=O)O1 [5′β- epirotenone]
[13]
  times less inhibiting than rotenone: about 1000 times
[5]
  LC50: 225.70 µg/mL (≈ 572 µM)
[5]; relative to rotenone
  times less toxic than rotenone: about 24 times
